For orientation: IC50 means the concentration that inhibits the measured activity by half.

In assay [1] the target is T1, His-GST-TVMV-hRIPK1(1-324) (Homo sapiens, UniProt Q13546).
T1 construct: 1 nM His-GST-TVMV-hRIPK1(1-324) in FRET Buffer; made in house; host or cells: Spodoptera frugiperda (Sf9) insect cells, baculovirus (Bac-to-Bac)
T1 sequence (Q13546 1-324): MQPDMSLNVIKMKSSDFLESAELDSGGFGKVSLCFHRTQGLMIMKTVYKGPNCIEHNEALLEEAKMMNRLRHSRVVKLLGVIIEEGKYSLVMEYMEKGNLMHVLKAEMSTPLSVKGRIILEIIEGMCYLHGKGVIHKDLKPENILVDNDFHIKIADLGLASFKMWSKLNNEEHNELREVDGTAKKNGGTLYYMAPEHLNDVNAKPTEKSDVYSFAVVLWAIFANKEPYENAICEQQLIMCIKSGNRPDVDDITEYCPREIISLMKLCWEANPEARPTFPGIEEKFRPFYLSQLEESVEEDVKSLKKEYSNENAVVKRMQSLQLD
Briefly: RIPK1 HTRF Binding Assay. To be noted: HTRF probe displacement, 1 h at rt. As for the experimental part: A solution was prepared containing 0.2 nM Anti GST-Tb (Cisbio, 61GSTTLB), 90.6 nM probe and 1 nM His-GST-TVMV-hRIPK1(1-324) in FRET Buffer (20 mM HEPES, 10 mM MgCl2, 0.015% Brij-35, 4 mM DTT, 0.05 mg/mL BSA). Using Formulatrix Tempest, the detection antibody/enzyme/probe solution ([…]) was dispensed into wells of a 1536 plate (Black Low Binding Polystyrene 1536 Plate (Corning, 3724)) containing 10 nL of compounds of interest at appropriate concentration in DMSO. The plate was incubated at rt for 1 h. FRET was measured using the EnVision plate reader (Excitation: 340 nm, Emission: 520 nm/[…]). Total signal (0% inhibition) was calculated from wells containing 10 nL DMSO only.
Cloning and Baculovirus Expression of RIPK1 Construct
The coding region of human RIPK1(1-324) flanked by NdeI site at 5′ end and stop codon TGA and XhoI site at 3′ end was codon optimized and gene synthesized at GenScript USA Inc. (Piscataway, NJ) and subcloned into a modified pFastBac1 vector (Invitrogen, Carlsbad, CA) with N-terminal His-GST-TVMV tag, to generate His-GST TVMV-hRIPK1(1-324)-pFB. The fidelity of the synthetic fragment was confirmed by sequencing. Baculovirus was generated for the construct using the Bac-to-Bac baculovirus expression system (Invitrogen) according to the manufacturer's protocol. Briefly, recombinant bacmid was isolated from transformed DH10Bac E. coli competent cells 20 (Invitrogen) and used to transfect Spodoptera frugiperda (Sf9) insect cells (Invitrogen). Baculovirus was harvested 72 hours post transfection and a virus stock was prepared by infecting fresh Sf9 cells at a 1/1000 (v/v) ratio for 66 hours. For large scale protein production, Sf9 cells (Expression System, Davis, CA) grown in ESF921 insect medium (Expression System) at 2×10^6 cells/ml were infected with virus stock at a 1/100 (v/v) ratio for 66 hours. The production was carried out either at a 10 L scale in a 22 L cellbag (GE Healthcare Bioscience, Pittsburgh, PA) or at a 20 L scale in a 50 L cellbag using WAVE-Bioreactor System 20/50 (GE Healthcare Bioscience). The infected cells were harvested by centrifugation at 2000 rpm for 20 min at 4° C. in a SORVALL® RC12BP centrifuge. The cell pellets was stored at −70° C. before protein was purified.
Purification of His-GST-TVMV-hRIPK1(1-324)
RIPK1 containing cell paste was resuspended in 50 mM Tris pH 7.5, 150 mM NaCl, 10 mM imidazole, 5% glycerol, 5 mM MgSO4, 1 mM TCEP, 25 U/ml Benzonase, and Complete Protease Inhibitor tablets (1/50 ml, Roche Diagnostics, Indianapolis, IN). The cells were lysed by nitrogen cavitation using an unstirred pressure vessel @ 525 PSI (Parr Instrument Company, Moline, IL). The suspension was clarified by centrifugation at 136,000×g for 40 min, at 4° C. The lysate was decanted from the pellet and passed through a 5 ml NiNTA Superflow cartridge (Qiagen, Valencia, CA) using an AKTA Pure (GE Healthcare). Column was eluted with 10 CV linear gradient into 50 mM Tris 7.5, 150 mM NaCl, 500 mM imidazole, 5% glycerol, 1 mM TCEP. Peak fractions were pooled and loaded directly onto 5 ml GSTrap 4B column (GE Healthcare). Column was washed with 50 mM Tris 7.0, 150 mM NaCl, […], 1 mM DTT and eluted in 10 CV linear gradient into 50 mM Tris 8.0, 150 mM NaCl, 20 mM reduced glutathione, 50% glycerol, 1 mM DTT. Fractions identified by SDS-PAGE as containing RIPK1 were pooled and concentrated using 30 kDa MWCO spin concentrators (Amicon Ultra-15, Millipore, Billerica, MA) and loaded onto a HiLoad 26/600 Superdex 200 column (GE Healthcare) equilibrated in 25 mM Tris 7.5, 150 mM NaCl, 2 mM TCEP, […]. The RTPK1 protein eluted as a dimer off the SEC column. The yield was ˜8 mg/L with a purity […] as determined by Coomassie stain SDS-PAGE gel analysis. […] Protein was aliquoted and stored at −80° C. Using these assays, the IC50 values of the following compounds were determined.
For orientation: TR-FRET usually uses a lanthanide donor and a delayed reading to cut background.

The test system of assay [2] is MLKL phosphorylation in HT29-L23 human colorectal adenocarcinoma cells. Briefly: MLKL Phosphorylation High-Content Assay. It counts as cell-based. To be noted: Homo sapiens, necroptosis induced with TNFα, SMAC mimetic and Z-VAD, 6 h, read-out: pMLKL (IC50). The procedure: MLKL Phosphorylation High-Content Assay
HT29-L23 human colorectal adenocarcinoma cells were maintained in RPMI 1640 medium containing 10% heat-inactivated FBS, 1% Penicillin-Streptomycin and 10 mM HEPES. Cells were seeded at 2,000 cells/well in 384 well tissue culture-treated microplates (Greiner #781090-3B) and incubated at 37° C. (5% CO2/95% O2) for 2 d. On the day of the assay, the cells were treated with test compounds at final concentrations of 6.25 to 0.106 μM for 30 min at 37° C. (5% CO2/95% O2). Necroptopsis was induced using a mixture of human TNFα (35 ng/mL) (Peprotech #300-01A), SMAC mimetic (from US 2015/0322111 A1) (700 nM) and Z-VAD (140 nM) (BD pharmingen #51-6936). Following 6 h incubation at 37° C. (5% CO2/95% O2), the cells were fixed with 4% formaldehyde (ACROS 11969-0010) for 15 min at rt, then permeabilized with phosphate buffered saline (PBS) containing 0.2% Triton-X-100 for 10 min. MLKL phosphorylation was detected using anti-MLKL (phospho S358) antibody (Abcam #ab187091) (1:1000 dilution in Blocking Buffer [PBS supplemented with 0.1% BSA]) with ON incubation at 4° C. After washing three times in PBS, goat anti-rabbit Alexa-488 (1:1000 dilution) (Life Technologies, A1 1008) and Hoechst 33342 (Life Technologies, H3570) (1:2000 dilution) in Blocking Buffer were added for 1 h at rt. Following another three cycles of washes in PBS, the microplates were sealed, and cellular images were acquired in the Cellomics ArrayScan VTI high-content imager equipped with an X1 camera. Fluorescent images were taken using a 10× objective and the 386-23 BGRFRN_BGRFRN and 485-20 BGRFRN_BGRFRN filter sets, for nuclei and MLKL phosphorylation, respectively. The image sets were analyzed using the Compartmental Analysis Bioapplication software (Cellomics). The level of MLKL phosphorylation was quantified as MEAN_CircRingAvglntenRatio. The maximal inhibitory response was defined by the activity induced by Necls (CAS #: 852391-15-2, 6.25 μm). The IC50 value was defined as the concentration of compound that produces 50% of the maximal inhibition. The data were fitted using the 4-parameter logistic equation to calculate the IC50 and Ymax values.

As to `CNC(=O)c1n[nH]c2cc(-c3nc(C)c(C(=O)NCc4cc(OC(F)(F)F)ccc4F)s3)ccc12` [Example 14, N-(2-fluoro-5-(trifluoromethoxy)benzyl)-4-methyl-2-(3-(methylcarbamoyl)-1H-indazol-6-yl)thiazole-5-carboxamide], the IC50 in assay [1] amounted to 7 nM; in assay [2] it was 8 nM.
For `CNC(=O)c1n[nH]c2cc(-c3nc(C)c(C(=O)NCc4cc(C(F)(F)F)ccc4F)s3)ccc12` [Example 18, N-(2-fluoro-5-(trifluoromethyl)benzyl)-4-methyl-2-(3-(methylcarbamoyl)-1H-indazol-6-yl)thiazole-5-carboxamide] the same measures were 15 nM and 9 nM.
For the compound `CNC(=O)c1n[nH]c2cc(-c3nc(C(=O)NCC[C@H](O)c4ccc(Cl)cc4)cs3)ccc12` [Example 23, (S)-N-(3-(4-chlorophenyl)-3-hydroxypropyl)-2-(3-(methylcarbamoyl)-1H-indazol-6-yl)thiazole-4-carboxamide], the IC50 was 120 nM in assay [1] and 1600 nM in assay [2].
In the same order, the values of `CC(C)NC(=O)c1n[nH]c2cc(-c3csc(C(=O)NCC[C@@H](O)c4ccc(Cl)cc4)c3)ccc12` [Example 5, (R)-6-(5-((3-(4-chlorophenyl)-3-hydroxypropyl)carbamoyl)thiophen-3-yl)-N-isopropyl-1H-indazole-3-carboxamide] are 800 nM and 1100 nM.
For the compound `CNC(=O)c1n[nH]c2cc(-c3nc(C)c(C(=O)NCC[C@@H](O)c4ccc(Cl)cc4)n3C)ccc12` [Example 28, (R)-6-(5-((3-(4-chlorophenyl)-3-hydroxypropyl)carbamoyl)-1,4-dimethyl-1H-imidazol-2-yl)-N-methyl-1H-indazole-3-carboxamide], the IC50 in assay [1] was 460 nM; in assay [2], 2600 nM.
Turning to `CNC(=O)c1n[nH]c2cc(-c3ccc(C(=O)NCc4cc(OC(F)(F)F)ccc4F)s3)ccc12` [Example 6, 6-(5-((2-fluoro-5-(trifluoromethoxy)benzyl)carbamoyl)thiophen-2-yl)-N-methyl-1H-indazole-3-carboxamide], the IC50 was found to be 31 nM in assay [1] and 56 nM in assay [2].
In the same order, the values of `CNC(=O)c1n[nH]c2cc(-c3nc(C)c(C(=O)NC(C)c4cc(OC(F)(F)F)ccc4F)s3)ccc12` (centres unmarked) [Example 19, N-(1-(2-fluoro-5-(trifluoromethoxy)phenyl)ethyl)-4-methyl-2-(3-(methylcarbamoyl)-1H-indazol-6-yl)thiazole-5-carboxamide] are 13 nM and 19 nM.
For `CNC(=O)c1n[nH]c2cc(-c3ccc(C(=O)NCCC(C)c4ccccc4)s3)ccc12` (centres unmarked) [Example 7, N-methyl-6-(5-((3-phenylbutyl)carbamoyl)thiophen-2-yl)-1H-indazole-3-carboxamide] the same measures were 17 nM and 3.9 nM.
In the same order, the values of `CNC(=O)c1n[nH]c2cc(-c3nc(C(=O)NCC[C@H](O)c4ccc(Cl)cc4)c(C)n3C)ccc12` [Example 34, (S)-6-(4-((3-(4-chlorophenyl)-3-hydroxypropyl)carbamoyl)-1,5-dimethyl-1H-imidazol-2-yl)-N-methyl-1H-indazole-3-carboxamide] are 760 nM and 1700 nM.
As to `CNC(=O)c1n[nH]c2cc(-c3cc(C)c(C(=O)NCc4cc(OC(F)(F)F)ccc4F)s3)ccc12` [Example 10, 6-(5-((2-fluoro-5-(trifluoromethoxy)benzyl)carbamoyl)-4-methylthiophen-2-yl)-N-methyl-1H-indazole-3-carboxamide], the IC50 in assay [1] amounted to 2 nM; in assay [2], 1 nM.
In the same order, the values of `CNC(=O)c1n[nH]c2cc(-c3nc(C(=O)NCc4cc(OC(F)(F)F)ccc4F)c(C)n3C)ccc12` [Example 31, 6-(4-((2-fluoro-5-(trifluoromethoxy)benzyl)carbamoyl)-1,5-dimethyl-1H-imidazol-2-yl)-N-methyl-1H-indazole-3-carboxamide] are 66 nM and 600 nM.
For `CNC(=O)c1n[nH]c2cc(-c3nc(C)c(C(=O)NCc4cc(C(F)(F)F)ccc4F)n3C)ccc12` [Example 30, 6-(5-((2-fluoro-5-(trifluoromethyl)benzyl)carbamoyl)-1,4-dimethyl-1H-imidazol-2-yl)-N-methyl-1H-indazole-3-carboxamide] the same measures were 100 nM and 150 nM.
Take `CNC(=O)c1n[nH]c2cc(-c3csc(C(=O)NCC[C@H](O)c4ccc(Cl)cc4)c3)ccc12` [Example 4, (S)-6-(5-((3-(4-chlorophenyl)-3-hydroxypropyl)carbamoyl)thiophen-3-yl)-N-methyl-1H-indazole-3-carboxamide]: the IC50 in assay [1] stood at 43 nM; in assay [2], 230 nM.

The values are drawn from US12275721B2, “Indazole carboxamides as kinase inhibitors” (BRISTOL-MYERS SQUIBB COMPANY, priority 2019, dated 2025).
